We go through 24 molecules from US12479820B2, “Pyridin-3-yl derivatives” (Idorsia Pharmaceuticals Ltd, priority 2019, dated 2025).

For the experiment, the target named is T1, human LPA1 receptor (Homo sapiens, UniProt Q92633).
T1 construct: TEV protease site; Gal4-VP16 transcription factor; host or cells: Tango EDG2-bla U2OS cells
T1 sequence (Q92633 whole entry, the tested form may be a part): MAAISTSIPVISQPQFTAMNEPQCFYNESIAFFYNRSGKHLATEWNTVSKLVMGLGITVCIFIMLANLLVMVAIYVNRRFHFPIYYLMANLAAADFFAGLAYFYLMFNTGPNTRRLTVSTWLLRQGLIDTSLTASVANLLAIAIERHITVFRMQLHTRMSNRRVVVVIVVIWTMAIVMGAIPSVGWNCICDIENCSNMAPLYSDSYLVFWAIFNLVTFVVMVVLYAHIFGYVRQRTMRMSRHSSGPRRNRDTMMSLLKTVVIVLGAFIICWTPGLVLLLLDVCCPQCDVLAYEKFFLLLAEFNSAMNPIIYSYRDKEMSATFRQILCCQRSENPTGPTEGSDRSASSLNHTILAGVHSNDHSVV
In words: Beta-arrestin recruitment assay to determine IC50 values for human LPAR1. Type of experiment: cell-based. Conditions: Tango EDG2-bla U2OS cells, antagonist assay, LPA 18:1 500 nM final. An excerpt: Beta-Arrestin Recruitment Assay to Determine IC50 Values for Human LPAR1
The Tango™ EDG2-bla U2OS cells are obtained from Invitrogen. These cells contain the human LPA1 receptor cDNA linked to a TEV protease site and a Gal4-VP16 transcription factor integrated into the Tango™ GPCR-bla U2OS parental cell line. This parental cell line stably expresses a beta-arrestin/TEV protease fusion protein and the beta-lactamase (bla) reporter gene under the control of a UAS response element. Upon LPA (agonist) binding, LPA1 receptor gets activated, leading to arrestin-protease recruitment and proteolytic release of the transcription factor: The transcription factor then regulates transcription of a beta-lactamase reporter construct, which is measured upon addition of the live-cell substrate.
10′000 Tango™ EDG2-bla U2OS cells are seeded in a 384-well black with clear bottom plate in 30 μl Freestyle 293 Expression Medium (Invitrogen) and incubated for 20 h at 37° C., 5% CO2. For antagonist assays, 5 μl of test compound (dilution series in DMSO/Freestyle 293 Expression medium/0.1% fatty acid free BSA (Sigma)) or buffer control are added per well and incubated for 30 min at 37° C., 5% CO2. 5 μl of LPA 18:1 (500 nM final) (solution in Freestyle 293 Expression medium/0.1% fatty acid free BSA (Sigma)) are added per well and the plate incubated for 16 h at 37° C., 5% CO2. Cells are then loaded with LiveBLAzer-FRET™ B/G Substrate (Invitrogen) for 2 h in the dark and the fluorescence emission at 460 nm and 530 nm is measured using the SynergyMx reader (BioTek). Following the background subtraction from both channels, the 460/530 nm emission ratio for each well is calculated, then plotted and fitted to a 4-parameter logistic function to obtain IC50 values. IC50 is the concentration of antagonist inhibiting 50% of the maximal response.
(Arrestin recruitment assays detect the binding of arrestin to an activated receptor.)
A word on the IC50: it is the concentration that inhibits the measured activity by half. In the case of `COc1cc(Cl)ncc1NC(=O)C1(c2ccccc2C(C)C)CN(C(=O)CS(C)(=O)=O)C1` [Example 19-16, N-(6-chloro-4-methoxypyridin-3-yl)-3-(2-isopropylphenyl)-1-(2-(methylsulfonyl)acetyl)azetidine-3-carboxamide], the 50% inhibitory concentration (IC50) is 54 nM.
Turning to `COC(=O)C(C)(C)CC(=O)N1CC(C(=O)Nc2cnc(Cl)cc2OC)(c2ccccc2C(C)C)C1` [Example 19-17, methyl 4-(3-((6-chloro-4-methoxypyridin-3-yl)carbamoyl)-3-(2-isopropylphenyl)azetidin-1-yl)-2,2-dimethyl-4-oxobutanoate], the IC50 turned out to be 43 nM.
Under `COc1cc(Cl)ncc1NC(=O)C1(c2ccccc2C(C)C)CN(C(=O)CC(C)(C)C(=O)O)C1` [Example 19-18, 4-(3-((6-chloro-4-methoxypyridin-3-yl)carbamoyl)-3-(2-isopropylphenyl)azetidin-1-yl)-2,2-dimethyl-4-oxobutanoic acid] stands 88 nM; under `COc1cc(Br)ncc1NC(=O)C1(c2ccccc2C(C)C)CN(C(=O)CC(C)(C)C(=O)O)C1` [Example 19-19, 4-(3-((6-bromo-4-methoxypyridin-3-yl)carbamoyl)-3-(2-isopropylphenyl)azetidin-1-yl)-2,2-dimethyl-4-oxobutanoic acid], 21 nM; under `CCOc1cc(Cl)ncc1NC(=O)C1(c2ccccc2C(C)C)CN(C(=O)CC(C)(C)C(=O)OC)C1` [Example 19-21, methyl 4-(3-((6-chloro-4-ethoxypyridin-3-yl)carbamoyl)-3-(2-isopropylphenyl)azetidin-1-yl)-2,2-dimethyl-4-oxobutanoate], 72 nM.
Then `CCOc1cc(Cl)ncc1NC(=O)C1(c2ccccc2C(C)C)CN(C(=O)CC(C)(C)C(=O)O)C1` [Example 19-22, 4-(3-((6-chloro-4-ethoxypyridin-3-yl)carbamoyl)-3-(2-isopropylphenyl)azetidin-1-yl)-2,2-dimethyl-4-oxobutanoic acid], with 12 nM.
Then `COc1cc(F)ncc1NC(=O)C1(c2ccccc2C(C)C)CN(C(=O)CC(C)(C)C(=O)O)C1` [Example 19-23, 4-(3-((6-fluoro-4-methoxypyridin-3-yl)carbamoyl)-3-(2-isopropylphenyl)azetidin-1-yl)-2,2-dimethyl-4-oxobutanoic acid], with 100 nM; and `COc1cc(Cl)ncc1NC(=O)C1(c2ccccc2C(C)C)CN(S(C)(=O)=O)C1` [Example 20-1, N-(6-chloro-4-methoxypyridin-3-yl)-3-(2-isopropylphenyl)-1-(methylsulfonyl)azetidine-3-carboxamide], with 11 nM; and `COCCS(=O)(=O)N1CC(C(=O)Nc2cnc(Cl)cc2OC)(c2ccccc2C(C)C)C1` [Example 20-2, N-(6-chloro-4-methoxypyridin-3-yl)-3-(2-isopropylphenyl)-1-((2-methoxyethyl)sulfonyl)azetidine-3-carboxamide], with 608 nM.
Take `COc1cc(Cl)ncc1NC(=O)C1(c2ccccc2C(C)C)CN(S(=O)(=O)CCO)C1` [Example 20-3, N-(6-chloro-4-methoxypyridin-3-yl)-1-((2-hydroxyethyl)sulfonyl)-3-(2-isopropylphenyl)azetidine-3-carboxamide]: the half-maximal inhibitory concentration (IC50) came to 21 nM.
Under `COc1cc(Cl)ncc1NC(=O)C1(c2ccccc2C(C)C)CN(S(=O)(=O)CCN(C)C)C1` [Example 20-4, N-(6-chloro-4-methoxypyridin-3-yl)-1-((2-(dimethylamino)ethyl)sulfonyl)-3-(2-isopropylphenyl)azetidine-3-carboxamide] stands 472 nM; under `COc1cc(Cl)ncc1NC(=O)C1(c2ccccc2C(C)C)CN(S(=O)(=O)C2COC2)C1` [Example 20-5, N-(6-chloro-4-methoxypyridin-3-yl)-3-(2-isopropylphenyl)-1-(oxetan-3-ylsulfonyl)azetidine-3-carboxamide], 34 nM.
In the case of `COc1cc(F)ncc1NC(=O)C1(c2ccccc2C(C)C)CN(S(N)(=O)=O)C1` [Example 21-1, N-(6-fluoro-4-methoxypyridin-3-yl)-3-(2-isopropylphenyl)-1-sulfamoylazetidine-3-carboxamide], the IC50 is 17 nM.
For the molecule `CCOc1cc(Cl)ncc1NC(=O)C1(c2ccccc2C(C)C)CN(S(N)(=O)=O)C1` [Example 21-3, N-(6-chloro-4-ethoxypyridin-3-yl)-3-(2-isopropylphenyl)-1-sulfamoylazetidine-3-carboxamide], the half-maximal inhibitory concentration (IC50) is 2 nM.
In the case of `CC(C)Oc1cc(Cl)ncc1NC(=O)C1(c2ccccc2C(C)C)CN(S(N)(=O)=O)C1` [Example 21-4, N-(6-chloro-4-isopropoxypyridin-3-yl)-3-(2-isopropylphenyl)-1-sulfamoylazetidine-3-carboxamide], the concentration for half-maximal inhibition (IC50) turned out to be 1 nM.
For `CC(C)c1ccccc1C1(C(=O)Nc2cnc(Cl)cc2OC2CC2)CN(S(N)(=O)=O)C1` [Example 21-5, N-(6-chloro-4-cyclopropoxypyridin-3-yl)-3-(2-isopropylphenyl)-1-sulfamoylazetidine-3-carboxamide], the concentration for half-maximal inhibition (IC50) turned out to be 6 nM.
On to `COCCOc1cc(Cl)ncc1NC(=O)C1(c2ccccc2C(C)C)CN(S(N)(=O)=O)C1` [Example 21-6, N-(6-chloro-4-(2-methoxyethoxy)pyridin-3-yl)-3-(2-isopropylphenyl)-1-sulfamoylazetidine-3-carboxamide], for which the IC50 is 44 nM.
Under `COC[C@H](C)Oc1cc(Cl)ncc1NC(=O)C1(c2ccccc2C(C)C)CN(S(N)(=O)=O)C1` [Example 21-7, (S)-N-(6-chloro-4-((1-methoxypropan-2-yl)oxy)pyridin-3-yl)-3-(2-isopropylphenyl)-1-sulfamoylazetidine-3-carboxamide] stands 3 nM; under `COc1cc(Cl)ncc1NC(=O)C1(c2ccccc2C(C)C)CCN(S(N)(=O)=O)CC1` [Example 21-8, N-(6-chloro-4-methoxypyridin-3-yl)-4-(2-isopropylphenyl)-1-sulfamoylpiperidine-4-carboxamide], 16 nM; under `COc1cc(Br)ncc1NC(=O)C1(c2ccccc2C(C)C)CN(S(N)(=O)=O)C1` [Example 21-9, N-(6-bromo-4-methoxypyridin-3-yl)-3-(2-isopropylphenyl)-1-sulfamoylazetidine-3-carboxamide], 2 nM.
As to `COc1cc(C)ncc1NC(=O)C1(c2ccccc2C(C)C)CN(S(N)(=O)=O)C1` [Example 21-10, 3-(2-isopropylphenyl)-N-(4-methoxy-6-methylpyridin-3-yl)-1-sulfamoylazetidine-3-carboxamide], the IC50 is 37 nM.
Then `COc1cc(C(F)(F)F)ncc1NC(=O)C1(c2ccccc2C(C)C)CN(S(N)(=O)=O)C1` [Example 21-11, 3-(2-isopropylphenyl)-N-(4-methoxy-6-(trifluoromethyl)pyridin-3-yl)-1-sulfamoylazetidine-3-carboxamide], with 42 nM; and `CNS(=O)(=O)N1CC(C(=O)Nc2cnc(Cl)cc2OC)(c2ccccc2C(C)C)C1` [Example 21-12, N-(6-chloro-4-methoxypyridin-3-yl)-3-(2-isopropylphenyl)-1-(N-methylsulfamoyl)azetidine-3-carboxamide], with 19 nM; and `COc1cc(Cl)ncc1NC(=O)C1(c2ccccc2C(C)C)CN(S(=O)(=O)NC2CC2)C1` [Example 21-13, N-(6-chloro-4-methoxypyridin-3-yl)-1-(N-cyclopropylsulfamoyl)-3-(2-isopropylphenyl)azetidine-3-carboxamide], with 22 nM.
